Results on six compounds are retold here after ChEMBL document CHEMBL1127169, “Syntheses of new 3-oxa-methano-PGI1 derivatives and their biological properties” (Bioorg Med Chem Lett, 1993).

Converted amounts (≈) assume the structure as drawn.

For test [1], the species on record is Oryctolagus cuniculus. In words: The compound was tested for inhibition of rabbit platelet aggregation induced by ADP; activity compared with PGE1 as standard was found to be 1/1.2. The test is classed as functional.
The next test is filed under the species Canis familiaris. In words: The compound was tested for inhibition of dog platelet aggregation induced by ADP. The test is classed as functional. The note with it: Canis lupus familiaris.
For test [2], the species on record is Oryctolagus cuniculus. In words: The compound was tested for inhibition of rabbit platelet aggregation induced by arachidonic acid. Format: functional.
The species named for the next test is Rattus norvegicus. In words: The compound was tested for inhibition of rat platelet aggregation induced by ADP. The test is classed as functional.
A further test is filed under the species Cavia porcellus. In words: The compound was tested for inhibition of guinea pig platelet aggregation induced by ADP. Format: functional.
The species entered for test [3] is Oryctolagus cuniculus. In words: The compound was tested for inhibition of rabbit platelet aggregation induced by ADP. The test is classed as functional, organism-based.
The species named for another test is Homo sapiens. In words: The compound was tested for inhibition of human platelet aggregation induced by ADP. The test is classed as functional.
The species named for test [4] is Oryctolagus cuniculus. In words: The compound was tested for inhibition of rabbit platelet aggregation induced by collagen. The test is classed as functional.
The species entered for test [5] is Oryctolagus cuniculus. In words: The compound was tested for inhibition of rabbit platelet aggregation induced by ADP, activity compared with PGE1 as standard was found to be <1/400. The test is classed as functional.
The species entered for test [6] is Oryctolagus cuniculus. In words: The compound was tested for inhibition of rabbit platelet aggregation induced by ADP, activity compared with PGE1 as standard was found to be 1/3.6. Format: functional.
For test [7], the species on record is Oryctolagus cuniculus. In words: The compound was tested for inhibition of rabbit platelet aggregation induced by ADP, activity compared with PGE1 as standard was found to be 1/80. The test is classed as functional.
The species named for test [8] is Oryctolagus cuniculus. In words: The compound was tested for inhibition of rabbit platelet aggregation induced by ADP, activity compared with PGE1 as standard. Format: functional.

The IC50 is the concentration needed to halve the response being measured. `CCCC[C@H](C)C[C@H](O)/C=C/[C@@H]1[C@H]2C[C@H](CCOCC(=O)O)C[C@H]2C[C@H]1O` showed a Relative activity in the test filed under Oryctolagus cuniculus [1] of 0.833. The IC50 in the test listed under Canis familiaris was 0.0043 µg/mL (≈ 0.0112 µM); in the test filed under Oryctolagus cuniculus [2] it was 0.0476 µg/mL (≈ 0.124 µM); in the test listed under Rattus norvegicus it was 0.0098 µg/mL (≈ 0.0256 µM); in the test filed under Cavia porcellus, 0.0031 µg/mL (≈ 0.0081 µM); in the test filed under Oryctolagus cuniculus [3], 0.0241 µg/mL (≈ 0.063 µM); in the test listed under Homo sapiens, 0.0125 µg/mL (≈ 0.0327 µM). In the test filed under Oryctolagus cuniculus [4], this compound returned an IC50 of 0.0183 µg/mL (≈ 0.0478 µM).

In the test filed under Oryctolagus cuniculus [5], `CCCC[C@H](C)C[C@@H](O)/C=C/[C@@H]1[C@H]2C[C@H](CCOCC(=O)O)C[C@H]2C[C@H]1O` showed a Relative activity of under 0.0025.

`CCCC[C@@H](C)C[C@H](O)/C=C/[C@@H]1[C@H]2C[C@H](CCOCC(=O)O)C[C@H]2C[C@H]1O` displayed a Relative activity in the test filed under Oryctolagus cuniculus [6] of 0.278.

On to `CCCCC[C@H](O)/C=C/[C@@H]1[C@H]2C[C@H](CCCCC(=O)O)C[C@H]2C[C@H]1O`, for which the Relative activity in the test listed under Oryctolagus cuniculus [7] came out at 0.0125.

Compound `CCCC[C@H](C)C[C@H](O)/C=C/[C@@H]1[C@H]2C[C@H](CCOCC(=O)O)C[C@H]2C[C@@H]1O` yielded a Relative activity in the test listed under Oryctolagus cuniculus [5] of under 0.0025.

As for `CCCCC[C@H](O)/C=C/[C@H]1[C@H](O)CC(=O)[C@@H]1CCCCCCC(=O)O` [ALPROSTADIL], the IC50 was found to be 0.0038 µg/mL (≈ 0.0107 µM) in the test filed under Canis familiaris; 0.0359 µg/mL (≈ 0.101 µM) in the test listed under Oryctolagus cuniculus [2]; 0.0344 µg/mL (≈ 0.097 µM) in the test listed under Rattus norvegicus; 0.0025 µg/mL (≈ 0.00705 µM) in the test filed under Cavia porcellus; 0.0207 µg/mL (≈ 0.0584 µM) in the test listed under Oryctolagus cuniculus [3]; 0.0136 µg/mL (≈ 0.0384 µM) in the test filed under Homo sapiens. This compound yielded an IC50 in the test filed under Oryctolagus cuniculus [4] of 0.0132 µg/mL (≈ 0.0372 µM). The compound further registered a Relative activity in the test listed under Oryctolagus cuniculus [8] of 1.
